Test results taken from PubChem BioAssay AID1963977 (Molecular Pharmacology Branch, DTP, NCI, 2024).
Where “and” joins values, the source holds several entries; their conditions need not be identical. Identical values can stand only once.

Tested on: 624824-186-R-J3-PDC multicell spheroids, viability
Assay: Anticancer human tumor 624824-186-R-J3-PDC patient-derived colon adenocarcinoma cell line growth inhibition [PI3K]
Conditions: for viability, T/C: stronger effect = lower value
In short: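 Complex 3D spheroids (cancer cells + endothelial HUVEC + mesenchymal stem cells); drug pairs of targeted agent x inavolisib/alpelisib/duvelisib/copanlisib; half-log series from ~Cmax, max 10 microM if Cmax unknown; endpoint viability.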

[1] = curve of first compound, second compound 0.0316 µM
[2] = curve of first compound, second compound 0.1 µM
[3] = curve of first compound, second compound 0.316 µM
[4] = curve of first compound, second compound 1 µM
[5] = second compound 0.0316 µM, first compound 0.0316 µM
[6] = second compound 0.0316 µM, first compound 0.1 µM
[7] = second compound 0.0316 µM, first compound 0.316 µM
[8] = second compound 0.0316 µM, first compound 1 µM
[9] = second compound 0.0316 µM, first compound 3.16 µM
[10] = second compound 0.0316 µM, first compound 10 µM
[11] = second compound 0.1 µM, first compound 0.0316 µM
[12] = second compound 0.1 µM, first compound 0.1 µM
[13] = second compound 0.1 µM, first compound 0.316 µM
[14] = second compound 0.1 µM, first compound 1 µM
[15] = second compound 0.1 µM, first compound 3.16 µM
[16] = second compound 0.1 µM, first compound 10 µM
[17] = second compound 0.316 µM, first compound 0.0316 µM
[18] = second compound 0.316 µM, first compound 0.1 µM
[19] = second compound 0.316 µM, first compound 0.316 µM
[20] = second compound 0.316 µM, first compound 1 µM
[21] = second compound 0.316 µM, first compound 3.16 µM
[22] = second compound 0.316 µM, first compound 10 µM
[23] = second compound 1 µM, first compound 0.0316 µM
[24] = second compound 1 µM, first compound 0.1 µM
[25] = second compound 1 µM, first compound 0.316 µM
[26] = second compound 1 µM, first compound 1 µM
[27] = second compound 1 µM, first compound 3.16 µM
[28] = second compound 1 µM, first compound 10 µM
[29] = curve of first compound, second compound 0.00316 µM
[30] = curve of first compound, second compound 0.01 µM
[31] = second compound 0.00316 µM, first compound 0.0316 µM
[32] = second compound 0.00316 µM, first compound 0.1 µM
[33] = second compound 0.01 µM, first compound 0.0316 µM
[34] = second compound 0.01 µM, first compound 0.1 µM
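Further: spheroids exposed to agents for seven days before luminescence read.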
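Wherever viability, T/C is given: luminescent signal used as a stand-in for spheroid viability; percent viability relative to DMSO vehicle control wells taken as 100%.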

## CC1(C)CCC(Nc2ncc(C(F)(F)F)c(-c3c[nH]c4c(P(C)(C)=O)c(C#N)ccc34)n2)CN1 (centres undefined)
Compound 0.0316 µM
  viability, T/C: 106% [middle of 4 runs]
Compound 0.1 µM
  viability, T/C: 87.3% [middle of 4 runs]
Compound 0.316 µM
  viability, T/C: 96.5% [middle of 4 runs]
Compound 1 µM
  viability, T/C: 96.9% [middle of 4 runs]
Compound 3.16 µM
  viability, T/C: 100% [middle of 4 runs]
Compound 10 µM
  viability, T/C: 4.6% [middle of 4 runs]
Curve of compound
  IC50: 5.64 µM [middle of 4 runs]

## Cn1ncc(Cl)c1-c1cc(C(=O)NC(CN)Cc2cccc(F)c2)sc1Cl (centres undefined) + CC(Nc1ncnc2nc[nH]c12)c1cc2cccc(Cl)c2c(=O)n1-c1ccccc1
[1]
  IC50: > 10 µM
[2]
  IC50: 8.15 µM
[3]
  IC50: 5.63 µM
[4]
  IC50: 5.17 µM
Curve of first compound, second compound 3.16 µM
  IC50: 4.18 µM
Curve of first compound, second compound 10 µM
  IC50: 2.26 µM
[5]
  viability, T/C: 95.7%
[6]
  viability, T/C: 109%
[7]
  viability, T/C: 103%
[8]
  viability, T/C: 69.4%
[9]
  viability, T/C: 62.4%
[10]
  viability, T/C: 47.8%
[11]
  viability, T/C: 115%
[12]
  viability, T/C: 101%
[13]
  viability, T/C: 96.1%
[14]
  viability, T/C: 83.5%
[15]
  viability, T/C: 64.5%
[16]
  viability, T/C: 46.5%
[17]
  viability, T/C: 103%
[18]
  viability, T/C: 101%
[19]
  viability, T/C: 90.7%
[20]
  viability, T/C: 75.4%
[21]
  viability, T/C: 59.9%
[22]
  viability, T/C: 41%
[23]
  viability, T/C: 107%
[24]
  viability, T/C: 102%
[25]
  viability, T/C: 91.9%
[26]
  viability, T/C: 78.6%
[27]
  viability, T/C: 61.5%
[28]
  viability, T/C: 35.2%
Second compound 3.16 µM, first compound 0.0316 µM
  viability, T/C: 96.8%
Second compound 3.16 µM, first compound 0.1 µM
  viability, T/C: 94%
Second compound 3.16 µM, first compound 0.316 µM
  viability, T/C: 86.3%
Second compound 3.16 µM, first compound 1 µM
  viability, T/C: 64.4%
Second compound 3.16 µM, first compound 3.16 µM
  viability, T/C: 57.6%
Second compound 3.16 µM, first compound 10 µM
  viability, T/C: 37.5%
Second compound 10 µM, first compound 0.0316 µM
  viability, T/C: 94.3%
Second compound 10 µM, first compound 0.1 µM
  viability, T/C: 89.6%
Second compound 10 µM, first compound 0.316 µM
  viability, T/C: 73.5%
Second compound 10 µM, first compound 1 µM
  viability, T/C: 60.5%
Second compound 10 µM, first compound 3.16 µM
  viability, T/C: 45.7%
Second compound 10 µM, first compound 10 µM
  viability, T/C: 38.5%

## Cn1ncnc1[C@H]1c2n[nH]c(=O)c3cc(F)cc(c23)N[C@@H]1c1ccc(F)cc1 + CC(Nc1ccc2c(c1)OCCn1cc(N3C(=O)OCC3C(F)F)nc1-2)C(N)=O
[29]
  IC50: > 0.1 µM
[30]
  IC50: > 0.1 µM
[1]
  IC50: > 0.1 µM
[2]
  IC50: > 0.1 µM
[3]
  IC50: > 0.1 µM
[4]
  IC50: > 0.1 µM
Second compound 0.00316 µM, first compound 0.000316 µM
  viability, T/C: 102%
Second compound 0.00316 µM, first compound 0.001 µM
  viability, T/C: 93.5%
Second compound 0.00316 µM, first compound 0.00316 µM
  viability, T/C: 101%
Second compound 0.00316 µM, first compound 0.01 µM
  viability, T/C: 99.7%
[31]
  viability, T/C: 87.8%
[32]
  viability, T/C: 111%
Second compound 0.01 µM, first compound 0.000316 µM
  viability, T/C: 97.8%
Second compound 0.01 µM, first compound 0.001 µM
  viability, T/C: 93.6%
Second compound 0.01 µM, first compound 0.00316 µM
  viability, T/C: 102%
Second compound 0.01 µM, first compound 0.01 µM
  viability, T/C: 95.7%
[33]
  viability, T/C: 101%
[34]
  viability, T/C: 92.1%
Second compound 0.0316 µM, first compound 0.000316 µM
  viability, T/C: 107%
Second compound 0.0316 µM, first compound 0.001 µM
  viability, T/C: 99.7%
Second compound 0.0316 µM, first compound 0.00316 µM
  viability, T/C: 97.5%
Second compound 0.0316 µM, first compound 0.01 µM
  viability, T/C: 92.8%
[5]
  viability, T/C: 97.4%
[6]
  viability, T/C: 106%
Second compound 0.1 µM, first compound 0.000316 µM
  viability, T/C: 94.7%
Second compound 0.1 µM, first compound 0.001 µM
  viability, T/C: 105%
Second compound 0.1 µM, first compound 0.00316 µM
  viability, T/C: 100%
Second compound 0.1 µM, first compound 0.01 µM
  viability, T/C: 99.8%
[11]
  viability, T/C: 104%
[12]
  viability, T/C: 106%
Second compound 0.316 µM, first compound 0.000316 µM
  viability, T/C: 93.8%
Second compound 0.316 µM, first compound 0.001 µM
  viability, T/C: 99.3%
Second compound 0.316 µM, first compound 0.00316 µM
  viability, T/C: 98.2%
Second compound 0.316 µM, first compound 0.01 µM
  viability, T/C: 91.6%
[17]
  viability, T/C: 96.7%
[18]
  viability, T/C: 100%
Second compound 1 µM, first compound 0.000316 µM
  viability, T/C: 90.6%
Second compound 1 µM, first compound 0.001 µM
  viability, T/C: 90.3%
Second compound 1 µM, first compound 0.00316 µM
  viability, T/C: 94%
Second compound 1 µM, first compound 0.01 µM
  viability, T/C: 91.9%
[23]
  viability, T/C: 99.1%
[24]
  viability, T/C: 86.6%

## Cn1ncnc1[C@H]1c2n[nH]c(=O)c3cc(F)cc(c23)N[C@@H]1c1ccc(F)cc1
Compound 0.000316 µM
  viability, T/C: 110% [middle of 4 runs]
Compound 0.001 µM
  viability, T/C: 100% [middle of 4 runs]
Compound 0.01 µM
  viability, T/C: 99.7% [middle of 4 runs]
Compound 0.0316 µM
  viability, T/C: 103% (2×) and 93.2% and 95.4%
Compound 0.1 µM
  viability, T/C: 98.4% [middle of 4 runs]
Curve of compound
  IC50: > 0.1 µM

## CC(Cn1ccc(-c2ccc(C#N)c(Cl)c2)n1)NC(=O)c1cc(C(C)O)[nH]n1 (centres undefined) + COc1c(OCCCN2CCOCC2)ccc2c3n(c(=NC(=O)c4cnc(N)nc4)nc12)CCN3
[29]
  IC50: > 10 µM
[30]
  IC50: > 10 µM
[1]
  IC50: > 10 µM
[2]
  IC50: > 10 µM
[3]
  IC50: 0.239 µM
[4]
  IC50: < 0.0316 µM
[31]
  viability, T/C: 106%
[32]
  viability, T/C: 98.6%
Second compound 0.00316 µM, first compound 0.316 µM
  viability, T/C: 101%
Second compound 0.00316 µM, first compound 1 µM
  viability, T/C: 96.3%
Second compound 0.00316 µM, first compound 3.16 µM
  viability, T/C: 103%
Second compound 0.00316 µM, first compound 10 µM
  viability, T/C: 98.2%
[33]
  viability, T/C: 101%
[34]
  viability, T/C: 93.2%
Second compound 0.01 µM, first compound 0.316 µM
  viability, T/C: 98.2%
Second compound 0.01 µM, first compound 1 µM
  viability, T/C: 103%
Second compound 0.01 µM, first compound 3.16 µM
  viability, T/C: 108%
Second compound 0.01 µM, first compound 10 µM
  viability, T/C: 105%
[5]
  viability, T/C: 96.6%
[6]
  viability, T/C: 97.4%
[7]
  viability, T/C: 87.3%
[8]
  viability, T/C: 95.6%
[9]
  viability, T/C: 91.9%
[10]
  viability, T/C: 84.5%
[11]
  viability, T/C: 74.5%
[12]
  viability, T/C: 79.9%
[13]
  viability, T/C: 78%
[14]
  viability, T/C: 76.6%
[15]
  viability, T/C: 77%
[16]
  viability, T/C: 68.7%
[17]
  viability, T/C: 54.6%
[18]
  viability, T/C: 50.1%
[19]
  viability, T/C: 49.8%
[20]
  viability, T/C: 48.2%
[21]
  viability, T/C: 40.9%
[22]
  viability, T/C: 38.8%
[23]
  viability, T/C: 26.9%
[24]
  viability, T/C: 28.1%
[25]
  viability, T/C: 28.3%
[26]
  viability, T/C: 28.2%
[27]
  viability, T/C: 24.9%
[28]
  viability, T/C: 23.6%
